System: Plasmodium berghei
Assay: Luciferase/luciferin-expressing antifolate-resistant parasites were used to infect a culture of HepG2 cells that were pre-incubated with compounds. Infected hepatocytes emit light due to the luciferase reaction. Assay results are presented as the percent inhibition of light emission compared to control. […]
Assay type: functional
Settings: sporozoite; for IC90: read-out: LUCIFERASE INFECTION ASSAY - IC90

C=CCNc1nc(-c2ccccc2)c(C(=O)OCC)cc1C#N
IC50 (HEPG2TOX_HILL_SLOPE 2.72, HEPG2TOX_R_SQUARED 0.984, PBLUC_HILL_SLOPE 4, PBLUC_R_SQUARED 0.181, read-out: LUCIFERASE INFECTION ASSAY - IC50): 6.9 µM
IC90: > 10.7 µM

CC(C)c1ccc(NC(=O)c2snc3ccc(Cl)cc23)cc1
IC50 (HEPG2TOX_HILL_SLOPE 2.78, HEPG2TOX_R_SQUARED 0.915, PBLUC_HILL_SLOPE 3.55, PBLUC_R_SQUARED 0.653, read-out: LUCIFERASE INFECTION ASSAY - IC50): 3.57 µM
IC90: 6.63 µM

Cc1ccc(C(=O)NN(C)c2nc3ccccc3nc2C(F)(F)F)cc1
IC50 (HEPG2TOX_HILL_SLOPE 2.8, HEPG2TOX_R_SQUARED 0.955, PBLUC_HILL_SLOPE 3.11, PBLUC_R_SQUARED 0.656, read-out: LUCIFERASE INFECTION ASSAY - IC50): 4.21 µM
IC90: 8.54 µM

O=C(CSc1nnc(-c2ccco2)o1)OCc1cc(F)cc2c1OC(c1ccccc1)OC2 (configuration not stated)
IC50 (HEPG2TOX_HILL_SLOPE 2.76, 2.27, HEPG2TOX_R_SQUARED 0.916, 0.957, PBLUC_HILL_SLOPE 6.02, 15.8, PBLUC_R_SQUARED 0.479, 0.425, read-out: LUCIFERASE INFECTION ASSAY - IC50): 3.17 µM
IC90: 4.11 µM

Fc1ccc(-c2cs/c(=N\CC3CCCO3)n2/N=C/c2ccccc2F)cc1 (configuration not stated)
IC50 (HEPG2TOX_HILL_SLOPE 2.73, HEPG2TOX_R_SQUARED 0.938, PBLUC_HILL_SLOPE 4.49, 0.768, PBLUC_R_SQUARED 0.141, 0.452, read-out: LUCIFERASE INFECTION ASSAY - IC50): 5.54 µM
IC90: > 10 µM

Brc1ccc(-c2ccc(CN3CCNCC3)s2)cc1
IC50 (HEPG2TOX_HILL_SLOPE 2.72, HEPG2TOX_R_SQUARED 0.0418, read-out: LUCIFERASE INFECTION ASSAY - IC50): > 10 µM
IC90: > 10 µM

CC(C)c1ccc(/C=C/C(=O)NN=c2nc[nH]c3ccccc23)cc1
IC50 (HEPG2TOX_HILL_SLOPE 2.75, HEPG2TOX_R_SQUARED 0.845, PBLUC_HILL_SLOPE 8.02, PBLUC_R_SQUARED 0.305, read-out: LUCIFERASE INFECTION ASSAY - IC50): 8.64 µM
IC90: > 10 µM

CC(=O)Nc1ccc(S(=O)(=O)N2CCCc3cc(C)ccc32)cc1
IC50 (HEPG2TOX_HILL_SLOPE 2.72, HEPG2TOX_R_SQUARED 0.907, PBLUC_HILL_SLOPE 2.8, PBLUC_R_SQUARED 0.127, read-out: LUCIFERASE INFECTION ASSAY - IC50): 5.79 µM
IC90: > 10 µM

O=c1c2ccccc2nnn1CSc1nc2ccccc2c(=O)n1CCC1=CCCCC1
IC50 (HEPG2TOX_HILL_SLOPE 2.76, HEPG2TOX_R_SQUARED 0.854, PBLUC_HILL_SLOPE 2.95, PBLUC_R_SQUARED 0.421, read-out: LUCIFERASE INFECTION ASSAY - IC50): 4.55 µM
IC90: 9.59 µM

CC(=O)O[C@H]1CC[C@]2(C)C3CC[C@]4(C)C(C5=CC(=O)OC5)CC[C@]4(O)C3CC[C@@H]2C1 (some centres not stated)
IC50 (HEPG2TOX_HILL_SLOPE 2.72, HEPG2TOX_R_SQUARED 0.979, PBLUC_HILL_SLOPE 2.85, PBLUC_R_SQUARED 0.935, read-out: LUCIFERASE INFECTION ASSAY - IC50): 0.528 µM
IC90: 1.14 µM

COc1ccc(-c2c(C)nn3c(=O)cc(CSc4ccc(C)cc4)[nH]c23)cc1
IC50 (HEPG2TOX_HILL_SLOPE 2.74, HEPG2TOX_R_SQUARED 0.727, PBLUC_HILL_SLOPE 9.33, PBLUC_R_SQUARED 0.653, read-out: LUCIFERASE INFECTION ASSAY - IC50): 3.09 µM
IC90: 3.91 µM

O=C(Nc1c2ccccc2nc2ccccc12)c1[nH]nc2c1CCCC2
IC50 (HEPG2TOX_HILL_SLOPE 2.71, HEPG2TOX_R_SQUARED 0.934, PBLUC_HILL_SLOPE 11.2, PBLUC_R_SQUARED 0.297, read-out: LUCIFERASE INFECTION ASSAY - IC50): 3.34 µM
IC90: 4.07 µM

CCc1nc2oc3ccccc3c(=O)c2c(=O)n1CCc1ccccc1
IC50 (HEPG2TOX_HILL_SLOPE 2.79, HEPG2TOX_R_SQUARED 0.325, PBLUC_HILL_SLOPE 2.85, PBLUC_R_SQUARED 0.319, read-out: LUCIFERASE INFECTION ASSAY - IC50): 4.63 µM
IC90: > 9.53 µM

Cc1oc2c(c1C(=O)NC(C)(C)C)C(=O)c1ccccc1C2=O
IC50 (HEPG2TOX_HILL_SLOPE 2.79, HEPG2TOX_R_SQUARED 0.986, PBLUC_HILL_SLOPE 0.957, PBLUC_R_SQUARED 0.592, read-out: LUCIFERASE INFECTION ASSAY - IC50): 0.466 µM
IC90: 4.63 µM

O=C(NNC(=O)c1cc(-c2ccc(Cl)s2)nc2ccccc12)c1cnccn1
IC50 (HEPG2TOX_HILL_SLOPE 2.73, HEPG2TOX_R_SQUARED 0.802, PBLUC_HILL_SLOPE 17.7, PBLUC_R_SQUARED 0.568, read-out: LUCIFERASE INFECTION ASSAY - IC50): 1.12 µM
IC90: 1.27 µM

COc1ccc(C2=NN=C/C2=N\Nc2ccc(C(F)(F)F)cc2)cc1
IC50 (HEPG2TOX_HILL_SLOPE 2.77, HEPG2TOX_R_SQUARED 0.967, PBLUC_HILL_SLOPE 4.55, PBLUC_R_SQUARED 0.276, read-out: LUCIFERASE INFECTION ASSAY - IC50): 4.56 µM
IC90: 7.39 µM

CC(=O)c1cccc(-c2cnc3ccc(-c4ccc(F)cc4)nn23)c1
IC50 (HEPG2TOX_HILL_SLOPE 2.73, HEPG2TOX_R_SQUARED 0.88, PBLUC_HILL_SLOPE 3.37, PBLUC_R_SQUARED 0.558, read-out: LUCIFERASE INFECTION ASSAY - IC50): 2.32 µM
IC90: 4.45 µM

CC1=CC2(C)C3C(=O)N(c4ccc(OC(F)(F)F)cc4)C(=O)C3C1C1C(=O)N(c3ccc(OC(F)(F)F)cc3)C(=O)C12 (configuration not stated)
IC50 (HEPG2TOX_HILL_SLOPE 2.78, HEPG2TOX_R_SQUARED 0.438, PBLUC_HILL_SLOPE 7.06, PBLUC_R_SQUARED 0.285, read-out: LUCIFERASE INFECTION ASSAY - IC50): 5.08 µM
IC90: > 5.55 µM

Cc1ccc([N+](=O)[O-])cc1S(=O)(=O)Nc1ccccc1C(=O)OCC(=O)NCCC1=CCCCC1
IC50 (HEPG2TOX_HILL_SLOPE 2.79, HEPG2TOX_R_SQUARED 0.956, PBLUC_HILL_SLOPE 19.8, PBLUC_R_SQUARED 0.561, read-out: LUCIFERASE INFECTION ASSAY - IC50): 9.09 µM
IC90: > 10 µM

COCc1[nH]n2c3cccc(=O)c-3nnc2c1-c1ccccc1
IC50 (HEPG2TOX_HILL_SLOPE 2.72, HEPG2TOX_R_SQUARED 0.697, PBLUC_HILL_SLOPE 5.05, PBLUC_R_SQUARED 0.588, read-out: LUCIFERASE INFECTION ASSAY - IC50): 5.34 µM
IC90: 8.25 µM

Cc1ccc(COC(=O)c2cccc(S(=O)(=O)NCc3ccccc3)c2)cc1
IC50 (HEPG2TOX_HILL_SLOPE 2.79, HEPG2TOX_R_SQUARED 0.991, PBLUC_HILL_SLOPE 8.82, PBLUC_R_SQUARED 0.278, read-out: LUCIFERASE INFECTION ASSAY - IC50): 3.84 µM
IC90: 4.92 µM

Fc1cccc(Nc2cc3c(cn2)ncn3Cc2ccccc2)c1
IC50 (HEPG2TOX_HILL_SLOPE 2.72, HEPG2TOX_R_SQUARED 0.764, PBLUC_HILL_SLOPE 2.07, PBLUC_R_SQUARED 0.581, read-out: LUCIFERASE INFECTION ASSAY - IC50): 8.26 µM
IC90: > 10 µM

COc1ccc(NS(=O)(=O)c2cc(NC(=O)C3=NNC(=O)CC3)ccc2C)cc1
IC50 (HEPG2TOX_HILL_SLOPE 2.75, HEPG2TOX_R_SQUARED 0.923, PBLUC_HILL_SLOPE 2.64, PBLUC_R_SQUARED 0.0563, read-out: LUCIFERASE INFECTION ASSAY - IC50): 4.97 µM
IC90: > 10 µM

O=C1OC(c2ccccc2)Cc2cc(C(=O)N3CCC(C(=O)Nc4ccccc4)CC3)ccc21 (configuration not stated)
IC50 (HEPG2TOX_HILL_SLOPE 2.71, HEPG2TOX_R_SQUARED 0.817, PBLUC_HILL_SLOPE 3.44, PBLUC_R_SQUARED 0.218, read-out: LUCIFERASE INFECTION ASSAY - IC50): 6.51 µM
IC90: > 10 µM

CNc1nc2cnc(Nc3cccc(C(F)(F)F)c3)cc2n1Cc1ccco1
IC50 (HEPG2TOX_HILL_SLOPE 2.71, HEPG2TOX_R_SQUARED 0.929, read-out: LUCIFERASE INFECTION ASSAY - IC50): > 10 µM
IC90: > 10 µM

COc1cccc(Nc2nccc3[nH]c(-c4cccc(F)c4)cc23)c1
IC50 (HEPG2TOX_HILL_SLOPE 2.76, HEPG2TOX_R_SQUARED 0.828, PBLUC_HILL_SLOPE 2.74, PBLUC_R_SQUARED 0.773, read-out: LUCIFERASE INFECTION ASSAY - IC50): 1.02 µM
IC90: 2.27 µM

Cc1cc(-c2ccccc2)[n+]2nc(N)c3ccccc3c2n1
IC50 (HEPG2TOX_HILL_SLOPE 2.74, HEPG2TOX_R_SQUARED 0.909, PBLUC_HILL_SLOPE 12.1, PBLUC_R_SQUARED 0.242, read-out: LUCIFERASE INFECTION ASSAY - IC50): 9.17 µM
IC90: > 10 µM

CCOC(=O)c1cnn(-c2ccc(NC(=O)c3sc4nc5n(c(=O)c4c3C)CCC5)cc2)c1C
IC50 (HEPG2TOX_HILL_SLOPE 2.74, HEPG2TOX_R_SQUARED 0.98, PBLUC_HILL_SLOPE 1.74, PBLUC_R_SQUARED 0.848, read-out: LUCIFERASE INFECTION ASSAY - IC50): 0.838 µM
IC90: 2.97 µM

CCOc1ccc(OCC)c(S(=O)(=O)Oc2cccc3cccnc23)c1
IC50 (HEPG2TOX_HILL_SLOPE 2.73, HEPG2TOX_R_SQUARED 0.737, PBLUC_HILL_SLOPE 3.92, PBLUC_R_SQUARED 0.473, read-out: LUCIFERASE INFECTION ASSAY - IC50): 4.37 µM
IC90: 7.66 µM

CS(=O)(=O)c1ccc(-c2ccc3ncc(-c4cccc(CO)c4)n3n2)cc1
IC50 (HEPG2TOX_HILL_SLOPE 2.77, HEPG2TOX_R_SQUARED 0.883, PBLUC_HILL_SLOPE 15.3, PBLUC_R_SQUARED 0.0795, read-out: LUCIFERASE INFECTION ASSAY - IC50): 3.37 µM
IC90: 3.89 µM

CC(C)(C)c1ccc(-c2cc3[nH]c(-c4ccccc4)cc(=O)n3n2)cc1
IC50 (HEPG2TOX_HILL_SLOPE 2.71, HEPG2TOX_R_SQUARED 0.618, PBLUC_HILL_SLOPE 3.36, PBLUC_R_SQUARED 0.487, read-out: LUCIFERASE INFECTION ASSAY - IC50): 1.95 µM
IC90: 3.76 µM

Source: ChEMBL document CHEMBL4483862, “Open-source discovery of chemical leads for next-generation chemoprotective antimalarials” (2018)
